# US11066447B2, “Aureobasidium derivatives and methods of synthesis” (AureoGen Biosciences, Inc., priority 2016, dated 2021)
# Several values for one entry are separate records, joined by “and”; a condition that tells them apart may be missing. Equal entries are not always repeated. Where two headings read alike, the source gives them in different places. Numbered stars: 1 amine (or outer) side, 2 acyl side, 3 side chain; on linkers, the order of the positions; unused ones are H or OH. Square brackets hold non-standard residues; d marks the D form. Peptide text beside a SMILES is read from it. ξ: configuration not given here. X4 = CN1CCN(c2cc(-c3cccc(C[C@@H](C(=O)[*:2])N(C)[*:1])c3)ccn2)CC1; X30 = CN([C@@H](Cc1cccc(-c2ccc(Cl)c(Cl)c2)c1)C(=O)[*:2])[*:1]; X5 = CN([C@@H](Cc1cccc(-c2ccc3cnccc3c2)c1)C(=O)[*:2])[*:1]; Hmp(2R,3S) = CC[C@H](C)[C@@H](O)C(=O)O; NMeVal(β-OH) = CN[C@H](C(=O)O)C(C)(C)O; X6 = CCC(C)[C@@H](O[*:1])C(=O)[*:2]; Ile(3ξ) = CCC(C)[C@H](N)C(=O)O; NMeV = CN[C@H](C(=O)O)C(C)C; ξL = CC(C)CC(N)C(=O)O
# Tests used:
# [1] = test system: C. albicans MMX 2000 ATCC 10231; assay: MIC assay (CLSI microdilution); format: cell-based; settings: Candida albicans, ATCC10231, RPMI plus 0.002% Tween-80; read-out: MIC
# Experimental: (§1) Aureobasidin and test compounds (i.e., AbA derivatives of the present invention) were received from Kalexsyn, Inc. (Kalamazoo, Mich.) as powder and were stored at 4° C. until the day of assay. […] amphotericin was obtained from Sigma Aldrich and stored under like conditions. […] Ethanol (95%) was used as a solvent and diluent for all AbA compounds. Amphotericin B was tested from 0.06-64 μg/mL. Amphotericin B (Sigma Aldrich; St. Louis, Mo.; Cat No. A9528-100MG, Lot No. 120M4087) was dissolved and diluted with dimethylsulfoxide (DMSO; Sigma Aldrich; St. Louis, Mo.; Cat No. 472301 Lot No. SHBD2072V).
# (§2) The solvents were added to the test agents and the stock solutions stood for approximately 1 hr at room temperature prior to use to auto sterilize. Stock solutions were prepared at 40× the desired top concentration in the test plate.
# (§3) All of the test isolates were originally received from either the American Type Culture Collection (ATCC), clinical labs, or directly from Aureogen Biosciences. Organisms stored by Micromyx were cultured on agar medium appropriate to each organism. Colonies were picked by swab from the isolation plates and put into suspension in appropriate broth containing cryoprotectant. The suspensions were aliquoted into cryogenic vials and maintained at −80° C.
# (§4) Prior to testing, Candida isolates were streaked from the frozen vials on Sabouraud dextrose agar. The yeast isolates were incubated for 48 hours at 35° C. before use. The fungal isolates were obtained from enumerated fungal stocks previously prepared at Micromyx and stored in phosphate buffered saline at 4° C.
# (§5) Test Media. The medium employed for the MIC assay was RPMI-1640 medium from HyClone Laboratories (Logan, Utah; Lot No. AYB60287A). The medium was prepared according to Clinical and Laboratory Standards Institute (CLSI) guidelines (1, 2), and modified to include 0.002% Tween-80. Candida parapsilosis ATCC 22019 (MMX 2323) and Aspergillus fumigatus ATCC MYA-3626 (MMX 5280) were also tested without Tween-80 to provide data for the quality control of amphotericin B in accordance with CLSI (3) and to assess the effect of Tween-80 on the activity of the test agents.
# (§6) Test Procedure. The MIC assay method followed the procedure described by CLSI (1, 2) and employed automated liquid handlers to conduct serial dilutions and liquid transfers. Automated liquid handlers included the Multidrop 384 (Labsystems, Helsinki, Finland), Biomek 2000 and Biomek FX (Beckman Coulter, Fullerton Calif.). The wells in columns 2-12 in standard 96-well microdilution plates (Costar 3795) were filled with 150 μl of the appropriate diluent (95% EtOH for investigational compounds, 100% DMSO for amphotericin B). These assay plates would become the ‘mother plates’ from which the assay ‘daughter plates’ would be prepared. The drugs (300 μL at 40× the desired top concentration in the test plates) were dispensed into the appropriate well in Column 1 of the mother plates. The Biomek 2000 was used to make two-fold serial dilutions through Column 11 in the “mother plate”. The wells of Column 12 contained no drug and served as the organism growth control wells.
# (§7) The daughter plates were loaded with 185 μL per well on the Multidrop 384 with RPMI plus 0.002% Tween-80 or RPMI containing no Tween-80 for the testing of the two QC isolates. The daughter plates were prepared on the Biomek FX instrument which transferred 5 μL of drug solution from each well of a mother plate to each corresponding well of each daughter plate in a single step.
# (§8) A standardized inoculum of each organism was prepared per CLSI methods (1, 2). For the Candida isolates, colonies were picked from the streak plate and a suspension was prepared in RPMI to equal a 0.5 McFarland standard. This suspension was diluted 1:100 in RPMI resulting in a final concentration of approximately 0.5-2.5×10^3 CFU/mL. […]
# [2] = test system: C. neoformans MMX 0634 ATCC 90112; assay: MIC assay (CLSI microdilution); format: cell-based; settings: Cryptococcus neoformans, ATCC90112, RPMI plus 0.002% Tween-80; read-out: MIC
# Experimental: as §1, §2, §3, §4, §5, §6, §7, §8
# [3] = test system: C. parapsilosis MMX 2323 ATCC 22019; assay: MIC assay (CLSI microdilution); format: cell-based, Candida parapsilosis
# Experimental: as §1, §2, §3, §4, §5, §6, §7, §8
# [4] = test system: A. flavus MMX 5948; assay: MIC/MEC assay (CLSI microdilution); format: cell-based
# Experimental: as §1, §2, §3, §4, §5, §6, §7, §8
# [5] = test system: A. fumigatus MMX 5944; assay: MIC/MEC assay (CLSI microdilution); format: cell-based; settings: for minimal effective concentration / MIC: Aspergillus fumigatus, MMX5944, 48 h; for MIC: RPMI plus 0.002% Tween-80, read-out: MIC
# Experimental: as §1, §2, §3, §4, §5, §6, §7, §8
# [6] = test system: A. fumigatus MMX 6781 ATCC MYA-4609; assay: MIC/MEC assay (CLSI microdilution); format: cell-based; settings: Aspergillus fumigatus; for MIC: 48 h, RPMI plus 0.002% Tween-80, read-out: MIC; for minimal effective concentration: RPMI plus 0.002% Tween-80, 48 hr
# Experimental: as §1, §2, §3, §4, §5, §6, §7, §8
# [7] = test system: A. fumigatus MMX 6782 ATCC 13073; assay: MIC/MEC assay (CLSI microdilution); format: cell-based; settings: Aspergillus fumigatus, ATCC13073, 48 h; for MIC: RPMI plus 0.002% Tween-80, read-out: MIC
# Experimental: as §1, §2, §3, §4, §5, §6, §7, §8
# [8] = test system: A. niger MMX 0624 ATCC 16888; assay: MIC/MEC assay (CLSI microdilution); format: cell-based; settings: Aspergillus niger, ATCC16888, 48 h
# Experimental: as §1, §2, §3, §4, §5, §6, §7, §8
# [9] = test system: A. fumigatus MMX 5280 ATCC MYA-3626; assay: MIC/MEC assay (CLSI microdilution); format: cell-based, Aspergillus fumigatus
# Experimental: as §1, §2, §3, §4, §5, §6, §7, §8
# [10] = test system: A. fumigatus from Aureogen; assay: MIC/MEC assay (CLSI microdilution); format: cell-based
# Experimental: as §1, §2, §3, §4, §5, §6, §7, §8
# [11] = ATCC22019, RPMI plus 0.002% Tween-80, read-out: MIC
# [12] = ATCC22019, Without Tween-80, read-out: MIC
# [13] = Aspergillus flavus, MMX5948, 48 h, RPMI plus 0.002% Tween-80
# [14] = Aspergillus flavus, MMX5948, 48 h, RPMI plus 0.002% Tween-80, read-out: MIC
# [15] = RPMI plus 0.002% Tween-80, read-out: MEC
# [16] = RPMI plus 0.002% Tween-80, read-out: MIC
# [17] = Aspergillus fumigatus, 48 h, RPMI plus 0.002% Tween-80, read-out: MEC
# [18] = Aspergillus fumigatus, 48 h, RPMI plus 0.002% Tween-80, read-out: MIC
# [19] = Aspergillus fumigatus, 48 h, Without Tween-80, read-out: MIC
# [20] = RPMI plus 0.002% Tween-80, 48 hr
# [21] = read-out: MEC, RPMI plus 0.002% Tween-80
MIC [2] [µg/mL],"MIC [3, 11] [µg/mL]","MIC [3, 12] [µg/mL]","MIC [4, 14] [µg/mL]",MIC [5] [µg/mL],MIC [6] [µg/mL],MIC [7] [µg/mL],"MIC [8, 16] [µg/mL]","MIC [9, 18] [µg/mL]","MIC [9, 19] [µg/mL]",Compound,minimal effective concentration ([5]; RPMI plus 0.002% Tween-80) [µg/mL],minimal effective concentration [6] [µg/mL],"minimal effective concentration [9, 17] [µg/mL]","MIC ([9]; Without Tween-80, 48 hr) [µg/mL]",also measured
0.12,0.5,2,1,> 64,> 64,> 64,0.5,> 64,> 64,"CC[C@H](C)[C@@H]1NC(=O)[C@@H]2CCCN2C(=O)[C@H](Cc2cccc(-c3ccc(Cl)c(Cl)c3)c2)N(C)C(=O)[C@H](Cc2ccccc2)NC(=O)[C@H](C(C)C)N(C)C(=O)[C@@H]([C@@H](C)CC)OC(=O)[C@H](C(C)(C)O)N(C)C(=O)[C@H](CC(C)C)NC(=O)[C@H](C(C)C)N(C)C1=O [Compound 2] (cyclo(F[X30]PI[NMeV]L[NMeVal(β-OH)][Hmp(2R,3S)][NMeV]))",0.5,0.5,0.5,–,"MIC [1]: 0.12 µg/mL; minimal effective concentration [4, 13]: 0.5 µg/mL; minimal effective concentration [7, 15]: 0.25 µg/mL; minimal effective concentration [8, 15]: 0.5 µg/mL; minimal effective concentration ([9]; Aspergillus fumigatus, 48 h, Without Tween-80, read-out: MEC): 8 µg/mL"
–,–,–,–,–,–,–,–,–,–,CCC(C)[C@@H]1NC(=O)[C@@H]2CCCN2C(=O)[C@H](Cc2cccc(-c3ccc4cnccc4c3)c2)N(C)C(=O)[C@H](Cc2ccccc2)NC(=O)[C@H](C(C)C)N(C)C(=O)[C@@H](C(C)CC)OC(=O)[C@H](C(C)(C)O)N(C)C(=O)C(CC(C)C)NC(=O)[C@H](C(C)C)N(C)C1=O (stereo partly drawn) [Compound 6] (cyclo(F[X5]P[Ile(3ξ)][NMeV][ξL][NMeVal(β-OH)][X6][NMeV])),–,–,–,> 64,"MIC ([3]; ATCC22019, RPMI plus 0.002% Tween-80): 0.12 µg/mL; MIC ([3]; ATCC22019, Without Tween-80): 1 µg/mL; MIC [4, 13]: 0.25 µg/mL; MEC [5, 20]: 0.5 µg/mL; minimal effective concentration [7, 21]: 0.25 µg/mL; MIC ([8]; RPMI plus 0.002% Tween-80): 0.12 µg/mL; minimal effective concentration [8, 21]: 0.12 µg/mL; minimal effective concentration ([9]; Aspergillus fumigatus, 48 h, read-out: MEC, RPMI plus 0.002% Tween-80): 1 µg/mL; minimal effective concentration ([9]; Aspergillus fumigatus, 48 h, read-out: MEC, Without Tween-80): 2 µg/mL"
0.06,0.03,0.5,0.25,0.5,0.25,0.5,0.03,0.25,1,"CC[C@H](C)[C@@H]1NC(=O)[C@@H]2CCCN2C(=O)[C@H](Cc2cccc(-c3ccnc(N4CCN(C)CC4)c3)c2)N(C)C(=O)[C@H](Cc2ccccc2)NC(=O)[C@H](C(C)C)N(C)C(=O)[C@@H]([C@@H](C)CC)OC(=O)[C@H](C(C)(C)O)N(C)C(=O)[C@H](CC(C)C)NC(=O)[C@H](C(C)C)N(C)C1=O [Compound 15] (cyclo(F[X4]PI[NMeV]L[NMeVal(β-OH)][Hmp(2R,3S)][NMeV]))",0.06,0.12,0.12,2,"MIC ([3]; Without Tween-80): 0.5 µg/mL; MIC [4, 20]: 0.25 µg/mL; minimal effective concentration ([10]; Aspergillus fumigatus, 48 h, RPMI plus 0.002% Tween-80): 0.06 µg/mL; MIC [10, 18]: 0.25 µg/mL; MIC [10, 20]: 0.25 µg/mL; MEC ([9]; Without Tween-80, 48 hr): 1/1 μg/mL and 1 μg/mL"
